Test results: ChEMBL document CHEMBL1122778, “A mechanism for the addition of multiple moles of glutamate by folylpolyglutamate synthetase” (J Med Chem, 1984)

Key:
[1] = biological target: T1, Folylpolyglutamate synthase, mitochondrial (Mus musculus) (UniProt P48760); assay: Compound was evaluated for reaction rate of compound in mouse liver Folyl-polyglutamate synthase ([3H]L-glutamate incorporated)
T1 sequence (whole entry): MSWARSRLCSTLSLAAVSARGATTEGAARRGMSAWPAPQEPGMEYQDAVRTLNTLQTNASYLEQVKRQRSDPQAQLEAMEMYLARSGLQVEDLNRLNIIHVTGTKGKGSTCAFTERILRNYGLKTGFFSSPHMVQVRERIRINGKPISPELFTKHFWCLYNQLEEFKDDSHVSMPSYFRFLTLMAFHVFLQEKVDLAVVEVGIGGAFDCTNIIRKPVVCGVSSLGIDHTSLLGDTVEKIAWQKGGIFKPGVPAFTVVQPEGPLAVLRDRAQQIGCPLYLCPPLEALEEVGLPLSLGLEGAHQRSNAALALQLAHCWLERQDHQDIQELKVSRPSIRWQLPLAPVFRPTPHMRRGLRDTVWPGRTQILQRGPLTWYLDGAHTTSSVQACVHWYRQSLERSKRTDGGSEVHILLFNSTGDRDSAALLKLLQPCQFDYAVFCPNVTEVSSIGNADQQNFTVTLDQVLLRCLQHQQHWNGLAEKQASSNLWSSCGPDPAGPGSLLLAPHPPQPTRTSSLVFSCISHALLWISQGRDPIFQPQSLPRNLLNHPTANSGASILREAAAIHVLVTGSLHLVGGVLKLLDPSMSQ

[2] = biological target: T1, Folylpolyglutamate synthase, mitochondrial (Mus musculus); assay: Compound was evaluated for reaction rate of compound in mouse liver Folyl-polyglutamate synthase for 1 hr at a conc of 500 uM ([3H]L-glutamate incorporated)
[3] = biological target: T1, Folylpolyglutamate synthase, mitochondrial (Mus musculus); assay: Concentration required go get half the maximal reaction with Folyl-polyglutamate synthase

| Compound | Reaction rate [1] [nM/h] | Reaction rate [2] [nM/h] | Concentration [3] [µM] |
| --- | --- | --- | --- |
| CN(Cc1cnc2nc(N)nc(N)c2n1)c1ccc(C(=O)NC(CCC(=O)NC(CCC(=O)O)C(=O)O)C(=O)O)cc1.CN(Cc1cnc2nc(N)nc(N)c2n1)c1ccc(C(=O)NC(CCC(=O)O)C(=O)O)cc1 (stereo not given) | 1.23 |  |  |
| CN(Cc1cnc2nc(N)nc(N)c2n1)c1ccc(C(=O)NC(CCC(=O)NC(CCC(=O)O)C(=O)O)C(=O)O)cc1 (stereo not given) |  | 0.7 | 163 |
| CN(Cc1cnc2nc(N)nc(N)c2n1)c1ccc(C(=O)N[C@@H](CCC(=O)O)C(=O)O)cc1 | 1.71 |  | 47 |
